Patent US20110207751A1, “HETEROCYCLIC COMPOUNDS AND USES AS ANTICANCER AGENTS” (priority 2010, published 2011)
Where a name gives a salt, the structure may show the parent alone.

What was measured:
[1] = test system: H1838 cells (human non-small cell lung cancer cell line); test: Inhibition of cell proliferation, xCelligence cell index; type: cell-based; conditions: NCI-H1838, 72 hr post compound treatment, read-out: calculated IC50
Excerpt: (§1) The biological activity of compounds disclosed herein was monitored and profiled using the Real-Time Cell Electronic Sensing (RT-CES®) system from ACEA Biosciences, Inc. The RT-CES system utilizes cell-substrate impedance technology to monitor cellular behavior inside tissue culture wells in a microtiter plate format. The technology features in the integration of molecular and cell biology with microelectronics and is based on the electronic detection of biological assay process. […]
(§2) For measurement of cell-substrate or cell-electrode impedance using RT-CES technology, microelectrodes having appropriate geometries are fabricated onto the bottom surfaces of microtiter plate or similar device, facing into the wells. […] When there are changes to the biological status of the cells analogue electronic readout signals are measured automatically and in real time, and are converted to digital signals for processing and for analysis. In a RT-CES system, a cell index (arbitrary representation of change in impedance) is automatically derived and provided based on measured electrode impedance values. […]
(§3) To quantify cell status based on the measured cell-electrode impedance, a parameter termed Cell Index is derived. Cell Index is a quantitative measure of the status of the cells in an electrode-containing well. […]

[2] = test system: SW620 cells (human colon cancer cell line); test: as above; type: cell-based; conditions: SW-620, 72 hr post compound treatment, read-out: calculated IC50
Excerpt: as §1, §2, §3

[3] = Body weight and animal number of carrier mice, MKN45 xenograft test; type: in vivo, BALB/c immunodeficient nude mice; conditions: for Animal No. end: 7 at beginning
Method: To evaluate the in vivo anticancer efficacy of COMPOUND O, MKN45 human gastric-intestinal cancer xenograft models in immunodeficient nude mice was tested. All the mouse models are maintained in the Pharmacology Lab of ACEA Bio (Hangzhou) CO., Ltd. The BALB/c immunodeficient nude mice were purchased from Shanghai SLAC Laboratory Animal, certification number: SCXKA (Shanghai) 2007-0005. The mouse weight was 19±1 g. Only female mice were used in this study. The numbers of animals tested were as follow: 7 for each dose group, 7 for positive control group and 7 for negative control group.
Test Control. For negative control, each mouse was administered orally with the solvent only having the same volume and same concentration as those used in COMPOUND O test, 120 mg/kg once every other day (qod) for 18 days. […]
Preparation an Administration of Test Compounds. COMPOUND O was dissolved in 25% phospholipid (S75) and 75% polyvinylpyrrolidone (PL-PVP) then further diluted to 8 mg/ml in 0.9% NaCl aqueous solution. Different dosages of COMPOUND O between 120 mg/kg qod (once every other day) and 160 mg/kg q3d (once every 3 days) were used in the study.
All used materials including animal food, animal cage, supporting materials and apparatus contacted by animals, were high-pressure sterilized. Nude mice were maintained in laminar flow shelves under SPF condition. After tumor transplantation, mouse weight and tumor size in each compound dosage group were dynamically monitored and plotted. The tumor size was determined by measuring the major axis (a) and minor axis (b) of the tumor, and tumor volume was calculated according to the formula: […]

[4] = test system: A549 human lung cancer cells; test: Mitotic arrest, phosphohistone H3 staining (mitotic index); type: cell-based; conditions: 33 nM
Excerpt: Microtubules are extremely important in the process of mitosis, during which the duplicated chromosomes of a cell are separated into two identical sets before cleavage of the cell into two daughter cells. Compounds which target microtubules such as paclitaxel and vinblastine suppress the microtubule dynamics and block the process of mitosis. As consequence, cells will be arrested at G2/M phase. To test if COMPOUND O influences the process of mitosis in cancer cell dividing, A549 human lung cancer cells were treated with 33 nM of COMPOUND O and paclitaxel, or 0.2% DMSO that served as negative control. The treated cells were stained with an antibody against phosphohistone H3, a marker for cells undergoing mitosis and mitotic arrest. […] It was 44±8%, 45±3% and 3±1% for paclitaxel, COMPOUND O and DMSO treated A549, respectively.

SMILES: CCc1ccc(Nc2nc(-c3c(C)nc4sccn34)cs2)cc1 [COMPOUND O, 2-(4-ethylphenyl)amino-4-(6-methylimidazo[2,1-b]thiazol-5-yl)-thiazole monohydrobromide]
- IC50 [1]: 11.8 nM
- IC50 [2]: 2.65 nM
- Animal weight (g) Beginning ([3]; 120 mg/kg ig × 9 qod): 19 g
- Animal weight (g) end ([3]; 120 mg/kg ig × 9 qod): 16.7 g
- Body weight of mice (g) 1 day ([3]; 120 mg/kg ig × 9 qod): 19.03 ± 0.76 g
- Body weight of mice (g) 4 day ([3]; 120 mg/kg ig × 9 qod): 19.53 ± 0.71 g
- Body weight of mice (g) 8 day ([3]; 120 mg/kg ig × 9 qod): 18.24 ± 1.10 g
- Body weight of mice (g) 11 day ([3]; 120 mg/kg ig × 9 qod): 18.21 ± 1.02 g
- Body weight of mice (g) 16 day ([3]; 120 mg/kg ig × 9 qod): 17.09 ± 1.09 g
- Body weight of mice (g) 18 day ([3]; 120 mg/kg ig × 9 qod): 16.71 ± 0.97 g
- Animal No. end ([3]; 120 mg/kg ig × 9 qod): 7/7
- Animal weight (g) Beginning ([3]; 160 mg/kg ig × 6 q3d): 18.3 g
- Animal weight (g) end ([3]; 160 mg/kg ig × 6 q3d): 15.7 g
- Body weight of mice (g) 1 day ([3]; 160 mg/kg ig × 6 q3d): 18.37 ± 0.66 g
- Body weight of mice (g) 4 day ([3]; 160 mg/kg ig × 6 q3d): 19.10 ± 0.73 g
- Body weight of mice (g) 8 day ([3]; 160 mg/kg ig × 6 q3d): 17.33 ± 1.52 g
- Body weight of mice (g) 11 day ([3]; 160 mg/kg ig × 6 q3d): 17.15 ± 1.33 g
- Body weight of mice (g) 16 day ([3]; 160 mg/kg ig × 6 q3d): 16.43 ± 1.47 g
- Body weight of mice (g) 18 day ([3]; 160 mg/kg ig × 6 q3d): 15.73 ± 1.31 g
- Animal No. end ([3]; 160 mg/kg ig × 6 q3d): 7/3
- mitotic index [4]: 45±3%

SMILES: COc1cc([C@@H]2c3cc4c(cc3[C@@H](O[C@@H]3O[C@@H]5CO[C@@H](C)O[C@H]5[C@H](O)[C@H]3O)[C@H]3COC(=O)[C@H]23)OCO4)cc(OC)c1O [Etoposide, reference compound]
- Animal weight (g) Beginning ([3]; 50 mg/kg ig × 6 q3d): 18.9 g
- Animal weight (g) end ([3]; 50 mg/kg ig × 6 q3d): 16.9 g
- Body weight of mice (g) 1 day ([3]; 50 mg/kg ig × 6 q3d): 18.94 ± 0.92 g
- Body weight of mice (g) 4 day ([3]; 50 mg/kg ig × 6 q3d): 19.57 ± 1.16 g
- Body weight of mice (g) 8 day ([3]; 50 mg/kg ig × 6 q3d): 17.17 ± 0.85 g
- Body weight of mice (g) 11 day ([3]; 50 mg/kg ig × 6 q3d): 17.26 ± 1.24 g
- Body weight of mice (g) 16 day ([3]; 50 mg/kg ig × 6 q3d): 16.94 ± 0.91 g
- Body weight of mice (g) 18 day ([3]; 50 mg/kg ig × 6 q3d): 16.93 ± 0.75 g
- Animal No. end ([3]; 50 mg/kg ig × 6 q3d): 7/7

SMILES: CC(=O)O[C@H]1C(=O)[C@@]2(C)[C@H]([C@H](OC(=O)c3ccccc3)[C@]3(O)C[C@H](OC(=O)[C@H](O)[C@@H](NC(=O)c4ccccc4)c4ccccc4)C(C)=C1C3(C)C)[C@]1(OC(C)=O)CO[C@@H]1C[C@@H]2O [paclitaxel]
- IC50 [2]: 0.998 nM
- mitotic index [4]: 44±8%

SMILES: CC[C@]1(O)C[C@H]2CN(CCc3c([nH]c4ccccc34)[C@@](C(=O)OC)(c3cc4c(cc3OC)N(C=O)[C@H]3[C@@](O)(C(=O)OC)[C@H](OC(C)=O)[C@]5(CC)C=CCN6CC[C@]43[C@@H]65)C2)C1 [vincristine]
- IC50 [1]: 3.16 nM
